In article PMC9865139 (Viruses, 2022):
Read-outs that look alike come from different tables or passages of the source.

Tests used:
[1] = test system: vaccinia virus (strain Copenhagen); assay: microbe, parasite or virus in culture; format: cell-based
[2] = test system: Vero cell culture; settings: African green monkey
[3] = test system: cowpox virus (strain Grishak), CPXV
[4] = test system: mousepox virus—ectromelia (strain K-1), ECTV
[5] = test system: cowpox virus (strain Grishak), CPXV; assay: microbe, parasite or virus in culture; settings: Vero, read-out: IC50 CPXV
[6] = test system: mousepox virus—ectromelia (strain K-1), ECTV; assay: microbe, parasite or virus in culture; settings: Vero, read-out: IC50 ECTV
[7] = test system: vaccinia virus; settings: cited from earlier work
[8] = test system: ectromelia virus; settings: mouse, in vivo; cited from earlier work
[9] = test system: VARV; settings: monkey, in vivo; cited from earlier work
[10] = in vivo; cited from earlier work
[11] = in vivo; cited from earlier work; remark: listed apart in the source
[12] = test system: cowpox virus; settings: cited from earlier work
[13] = test system: orthopoxviruses; settings: cited from earlier work
[14] = Orthopoxvirus vaccinia, Vero, read-out: IC50, 50% virus-inhibiting concentration
[15] = Orthopoxvirus vaccinia, Vero, read-out: pIC50 (converted)

Row | Compound | SI, selectivity index (TC50/IC50) [1] | IC50 [1, 14] [nM] | IC50 [1, 15] [nM] | TC50, 50% cytotoxic concentration [2] [nM] | also measured
1 | O=C(NC12CC3CC(CC(C3)C1)C2)c1ccccc1 [12a] | 23 | 4700 ± 370 | 4680 | 105670 ± 19140 | –
2 | O=C(NC1C2CC3CC(C2)CC1C3)c1ccccc1 (stereo not shown) [12b] | 15 | 6730 ± 170 | 6760 | 101330 ± 6110 | –
3 | O=C(NC12CC3CC(CC(C3)C1)C2)c1ccc(F)cc1 [13a] | 847 | 410 ± 100 | 407 | 347310 ± 38980 | SI CPXV (TC50/IC50) [3]: 125; SI ECTV (TC50/IC50) [4]: 250; IC50 [5]: 2780 ± 420 nM; IC50 [6]: 1390 ± 290 nM
4 | O=C(NC1C2CC3CC(C2)CC1C3)c1ccc(F)cc1 (stereo not shown) [13b] | 49 | 2140 ± 130 | 2140 | 104000 ± 8720 | –
5 | O=C(NC12CC3CC(CC(C3)C1)C2)c1ccc(Cl)cc1 [14a] | 2662 | 130 ± 80 | 135 | 346000 ± 66000 | SI CPXV (TC50/IC50) [3]: 653; SI ECTV (TC50/IC50) [4]: 935; IC50 [5]: 530 ± 370 nM; IC50 [6]: 370 ± 330 nM
6 | O=C(NC1C2CC3CC(C2)CC1C3)c1ccc(Cl)cc1 (stereo not shown) [14b] | 578 | 180 ± 40 | 182 | 104000 ± 8720 | –
7 | O=C(NC12CC3CC(CC(C3)C1)C2)c1ccc(Br)cc1 [15a] | 3192 | 130 ± 80 | 129 | 415000 ± 95000 | SI CPXV (TC50/IC50) [3]: 1038; SI ECTV (TC50/IC50) [4]: 2767; IC50 [5]: 400 ± 240 nM; IC50 [6]: 150 ± 80 nM
8 | O=C(NC1C2CC3CC(C2)CC1C3)c1ccc(Br)cc1 (stereo not shown) [15b] | 589 | 220 ± 70 | 219 | – | IC50 ([7]; read-out: IC50): 3060 nM
9 | O=C(NC12CC3CC(CC(C3)C1)C2)c1ccccc1[N+](=O)[O-] [16a, N-(adamantan-1-yl)-2-nitrobenzamide] | – | – | – | >100000 | –
10 | O=C(NC1C2CC3CC(C2)CC1C3)c1ccccc1[N+](=O)[O-] (stereo not shown) [16b, N-(adamantan-2-yl)-2-nitrobenzamide] | – | – | – | >100000 | –
11 | O=C(NC12CC3CC(CC(C3)C1)C2)c1cccc([N+](=O)[O-])c1 [17a, N-(adamantan-1-yl)-3-nitrobenzamide] | 8 | 950 ± 30 | 955 | 7750 ± 750 | –
12 | O=C(NC1C2CC3CC(C2)CC1C3)c1cccc([N+](=O)[O-])c1 (stereo not shown) [17b, N-(adamantan-2-yl)-3-nitrobenzamide] | 10 | 990 ± 190 | 1000 | 9500 ± 870 | –
13 | O=C(NC12CC3CC(CC(C3)C1)C2)c1ccc([N+](=O)[O-])cc1 [18a] | 18,214 | 30 ± 10 | 30.2 | 546430 ± 23980 | SI CPXV (TC50/IC50) [3]: 3036; SI ECTV (TC50/IC50) [4]: 6071; IC50 [5]: 180 ± 20 nM; IC50 [6]: 90 ± 17 nM
14 | O=C(NC1C2CC3CC(C2)CC1C3)c1ccc([N+](=O)[O-])cc1 (stereo not shown) [18b, N-(adamantan-2-yl)-4-nitrobenzamide] | 12,300 | 40 ± 10 | 39.8 | 492000 ± 31000 | SI CPXV (TC50/IC50) [3]: 447; SI ECTV (TC50/IC50) [4]: 1093; IC50 [5]: 1100 ± 220 nM; IC50 [6]: 450 ± 220 nM
15 | CCCCCCCCCCCCCCCCOCCCOP(=O)(O)CO[C@H](CO)Cn1ccc(N)nc1=O [CMX001, Brincidofovir] | – | – | – | – | protection against lethal infection with ectromelia virus [8]: does not provide a sufficient level of protection
16 | Brc1ccc(NC2C3CC4CC(C3)CC2C4)cc1 (stereo not shown) [bromantane, reference compound] | 2 | 38800 | 87100 | – | IC50 ([1]; read-out: IC50, 50% virus-inhibiting concentration): 38900 ± 490 nM
17 | Nc1ccn(C[C@@H](CO)OCP(=O)(O)O)c(=O)n1 [cidofovir, Cidofovir, reference compound] | 26 | 7630 ± 3150 | – | 201330 ± 60100 | SI CPXV (TC50/IC50) [3]: 9; SI ECTV (TC50/IC50) [4]: 31; selectivity index (SI), vaccinia virus [7]: 12; efficacy when used after the onset of smallpox lesions [9]: ineffective; oral bioavailability [10]: Low; nephrotoxicity [11]: significant; IC50 [5]: 23500 ± 2230 nM; IC50 [6]: 6460 ± 3100 nM
18 | O=C(N/N=C1/C(=O)Nc2ccccc21)NC1C2CC3CC(C2)CC1C3 (stereo not shown) [compound 1] | – | – | – | – | reduction in vaccinia virus reproduction [7]: 42%
19 | O=C(CNC1CCCCC1)NC12CC3CC(CC(C3)C1)C2 [compound 2] | – | – | – | – | vaccinia virus inhibitory effects [7]: pronounced
20 | CC(=O)N(OCCN(C)C)C12CC3CC(CC(C3)C1)C2 [compound 3] | – | – | – | – | vaccinia virus inhibitory effects [7]: pronounced
21 | CN(C)CCOCC(=O)NC12CC3CC(CC(C3)C1)C2 [compound 4, tromantadine] | – | – | – | – | vaccinia virus inhibitory effects [7]: pronounced
22 | O=C1C2C3C=CC(C4CC34)C2C(=O)N1NC(=O)C12CC3CC(CC(C3)C1)C2 (stereo not shown) [compound 6] | – | – | – | – | effective concentration against vaccinia virus [7]: below 0.05 μM; effective concentration against cowpox virus [12]: below 0.05 μM
23 | CC1(C)[C@H]2CC=C(CNC(=O)C34CC5CC(CC(C5)C3)C4)[C@@H]1C2 [compound 7] | – | – | – | – | selectivity index (SI), vaccinia virus [7]: 1123; selectivity index (SI), cowpox virus [12]: 406
24 | O=C(NC12CC3CC(CC(C3)C1)C2)c1ccc(C(F)(F)F)cc1 [compound 10] | – | – | – | – | selectivity index [13]: 2325
25 | CC1(C)C2CCC1(C)C(NC(=O)c1ccc([N+](=O)[O-])cc1)C2 (stereo not shown) [compound 11] | – | – | – | – | selectivity index [13]: 31,500
26 | O=C(NN1C(=O)C2C3C=CC(C4CC34)C2C1=O)c1ccc(F)cc1 (stereo not shown) [compound 19] | – | – | – | – | IC50 ([7]; read-out: IC50 against vaccinia virus): < 50 nM
